Test results published in patent US7256206B2, “Bicyclic compounds and compositions” (IRM LLC, priority 2003, dated 2007).
pEC50: −log10 of the molar value.

Legend:
[1] = target: T1, EDG-8 (Homo sapiens, UniProt Q9H228); assay: EDG-8 GTP [γ-35S] binding assay (RH7777 membranes); assay type: biochemical
T1 construct: c-myc (print says 'tagged or untagged'; not resolved for this receptor) (C); expressed in transfected cells; membranes

[2] = target: T2, EDG-5 (Homo sapiens, UniProt O95136); assay: EDG-5 GTP [γ-35S] binding assay; assay type: biochemical; conditions: CHO membranes
T2 construct: c-myc (print says 'tagged or untagged'; not resolved for this receptor) (C); expressed in transfected cells; membranes
Excerpt: (§1) A. In vitro: a Scintillation Proximity Assay (SPA) for Measuring GTP [γ-^35S] Binding to Membranes Prepared from CHO Cells Expressing Human EDG/S1P Receptors
(§2) EC50 values are obtained by fitting the GTP [γ-^35S] binding curves (raw data) with the dose response curve-fitting tool of ORIGIN V. 6.1. Basal binding (no compound) and the highest stimulation of GTP [γ-^35S] binding achieved by an agonist are used as the fitting range. Seven different concentrations are used to generate a concentration response curve (using two or three data points per concentration).
(§3) Concentrations of EDG receptor expressing membranes range between 13–19 μg per well.

[3] = target: T3, EDG-6 (Homo sapiens, UniProt O95977); assay: EDG-6 GTP [γ-35S] binding assay; assay type: biochemical; conditions: CHO membranes
T3 construct: c-myc (print says 'tagged or untagged'; not resolved for this receptor) (C); expressed in transfected cells; membranes
T3 sequence (O95977 1-384): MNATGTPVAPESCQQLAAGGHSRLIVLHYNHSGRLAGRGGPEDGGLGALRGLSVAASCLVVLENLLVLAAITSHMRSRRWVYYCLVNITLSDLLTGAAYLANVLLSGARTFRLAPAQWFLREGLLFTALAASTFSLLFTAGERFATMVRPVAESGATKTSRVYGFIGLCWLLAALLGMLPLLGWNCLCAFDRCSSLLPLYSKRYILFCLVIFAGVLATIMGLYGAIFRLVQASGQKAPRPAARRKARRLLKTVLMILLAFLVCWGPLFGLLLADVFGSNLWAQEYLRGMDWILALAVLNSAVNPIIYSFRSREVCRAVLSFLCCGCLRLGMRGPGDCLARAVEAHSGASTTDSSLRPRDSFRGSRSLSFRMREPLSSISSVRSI
Excerpt: as §1, §2, §3

[4] = test system: circulating lymphocytes; assay: Measurement of blood lymphocyte depletion; assay type: in vivo, Mice (C57bl/6 male); conditions: mice, blood collected 18 hours after administration, dose for 50% blood lymphocyte depletion; for ED50: Mus musculus, Lymphocyte, ip, 18 h
Experimental: (§4) C. In Vivo: Screening Assays for Measurement of Blood Lymphocyte Depletion and Assessment of Heart Effect
Measurement of circulating lymphocytes: Compounds are dissolved in DMSO and further diluted with deionized water. Mice (C57bl/6 male, 6–10 week-old) are administered 20 μg of compound (diluted in 200 μl water, 4% DMSO) via intra-peritoneal (IP) injection under short isoflurane anesthesia. Water (200 μl), 4% DMSO, and FTY720 (10 μg) are included as negative and positive controls, respectively.
Blood is collected from the retro-orbital sinus 18 hours after drug administration under short isoflurane anesthesia. Whole blood samples are subjected to hematology analysis. Peripheral lymphocyte counts are determined using an automated analyzer. Subpopulations of peripheral blood lymphocytes are stained by fluorochrome-conjugated specific antibodies and analyzed using a fluorescent activating cell sorter (Facscalibur). Two mice are used to assess the lymphocyte depletion activity of each compound screened. The result is an ED50, which is defined as the effective dose required displaying 50% of blood lymphocyte depletion.

[5] = target: T4, EDG-3 (Homo sapiens, UniProt Q99500); assay: EDG-3 GTP [γ-35S] binding assay; assay type: biochemical; conditions: CHO membranes
T4 construct: c-myc (print says 'tagged or untagged'; not resolved for this receptor) (C); expressed in transfected cells; membranes
Excerpt: as §1, §2, §3

[6] = Assessment of heart effect (AnonyMOUSE ECG screening); assay type: in vivo, mice (C57bl/6 male); conditions: ECG before and after compound, 90 μg IP
Experimental: as §4
Assessment of Heart Effect: The effects of compounds on cardiac function are monitored using the AnonyMOUSE ECG screening system. Electrocardiograms are recorded in conscious mice (C57bl/6 male, 6–10 week-old) before and after compound administration. ECG signals are then processed and analyzed using the e-MOUSE software. 90 μg of compound further diluted in 200 μl water, 15% DMSO are injected IP. Four mice are used to assess the heart effect of each compound.

[7] = target: T5, human EDG-1 (Homo sapiens, UniProt P21453); assay: EDG-1 (S1P1) GTP [γ-35S] binding assay (SPA); assay type: biochemical; conditions: for pEC50: GTP [γ-35S] binding, CHO membranes
T5 construct: c-myc (N); expressed in transfected cells; membrane protein suspensions
Experimental: as §1
EDG-1 (S1P1) GTP [γ-^35S] binding assay: Membrane protein suspensions are prepared from CHO cell clones stably expressing a human EDG-1 N-terminal c-myc tag. Solutions of test compounds ranging from 10 mM to 0.01 mM are prepared in DMSO/50 mM HCl and then diluted into assay buffer (20 mM HEPES, pH7.4, 100 mM NaCl, 10 mM MgCl2, 0.1% fat free BSA). Assay buffer containing […] is mixed with wheat germ agglutinin-coated SPA-beads (1 mg/well) followed by the addition of human EDG-1 membrane protein suspension (10 μg/well) and test compound. The bead/membrane/compound assay components are then mixed for 10–15 minutes on a shaker at room temperature. GTP [γ-^35S] (200 pM) and bead/membrane/compound assay mixture are added to individual wells of a 96 well Optiplate™ (final volume 225 μl/well), sealed and incubated at room temperature for 110 to 120 minutes under constant shaking. After centrifugation (2000 rpm, 10 minutes) luminescence is measured with a TopCount™ instrument.
as §2

T2 sequence (O95136 whole entry): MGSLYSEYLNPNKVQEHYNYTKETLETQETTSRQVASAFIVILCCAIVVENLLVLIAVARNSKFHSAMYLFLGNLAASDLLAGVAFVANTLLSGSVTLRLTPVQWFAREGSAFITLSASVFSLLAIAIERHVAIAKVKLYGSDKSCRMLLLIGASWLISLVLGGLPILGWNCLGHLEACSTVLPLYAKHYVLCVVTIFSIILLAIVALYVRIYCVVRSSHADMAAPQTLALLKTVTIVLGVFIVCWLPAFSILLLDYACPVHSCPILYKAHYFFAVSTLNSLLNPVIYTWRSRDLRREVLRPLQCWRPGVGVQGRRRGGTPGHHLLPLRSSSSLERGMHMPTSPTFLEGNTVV
T5 sequence (P21453 whole entry): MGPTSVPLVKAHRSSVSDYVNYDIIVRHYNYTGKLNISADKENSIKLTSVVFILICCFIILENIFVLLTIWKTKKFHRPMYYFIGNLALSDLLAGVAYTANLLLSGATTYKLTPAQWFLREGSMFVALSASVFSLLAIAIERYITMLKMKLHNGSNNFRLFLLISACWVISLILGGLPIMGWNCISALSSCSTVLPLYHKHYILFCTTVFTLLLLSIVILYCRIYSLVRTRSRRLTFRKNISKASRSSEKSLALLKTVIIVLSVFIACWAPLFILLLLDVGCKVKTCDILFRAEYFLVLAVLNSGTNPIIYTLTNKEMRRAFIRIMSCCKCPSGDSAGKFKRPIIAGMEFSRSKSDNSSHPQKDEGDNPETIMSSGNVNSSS
T1 sequence (Q9H228 whole entry): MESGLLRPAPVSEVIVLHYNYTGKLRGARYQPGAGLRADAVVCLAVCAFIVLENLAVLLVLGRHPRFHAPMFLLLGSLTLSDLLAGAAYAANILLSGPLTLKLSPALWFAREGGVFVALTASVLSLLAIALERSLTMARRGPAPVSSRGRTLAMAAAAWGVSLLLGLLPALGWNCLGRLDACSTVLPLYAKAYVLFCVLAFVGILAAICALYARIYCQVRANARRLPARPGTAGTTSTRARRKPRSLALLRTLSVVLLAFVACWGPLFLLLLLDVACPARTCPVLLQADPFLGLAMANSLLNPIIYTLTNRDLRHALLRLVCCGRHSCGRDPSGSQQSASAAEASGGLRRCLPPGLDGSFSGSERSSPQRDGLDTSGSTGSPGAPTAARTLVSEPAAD
T4 sequence (Q99500 whole entry): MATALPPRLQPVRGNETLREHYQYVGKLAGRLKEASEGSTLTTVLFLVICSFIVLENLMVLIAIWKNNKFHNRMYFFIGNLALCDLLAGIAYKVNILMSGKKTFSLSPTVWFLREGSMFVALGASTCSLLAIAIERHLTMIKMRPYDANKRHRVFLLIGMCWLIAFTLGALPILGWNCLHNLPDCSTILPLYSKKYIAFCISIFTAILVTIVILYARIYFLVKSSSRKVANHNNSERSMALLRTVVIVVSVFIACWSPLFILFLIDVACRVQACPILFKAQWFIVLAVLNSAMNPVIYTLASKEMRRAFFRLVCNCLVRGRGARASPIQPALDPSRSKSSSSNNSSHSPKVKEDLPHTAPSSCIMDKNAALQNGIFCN

| pEC50 [1] | pEC50 [2] | pEC50 [3] | pEC50 [5] | pEC50 [7] | selectivity for EDG-1 compared to EDG-3, EDG-5, EDG-6 and EDG-8 ([7]; GTP [γ-35S] binding assays) | Structure (SMILES) | ED50 [4] [mg/kg] | Heart effect in conscious mice [6] | Lymphocyte Depletion ED50 ([4]; IP) |
| --- | --- | --- | --- | --- | --- | --- | --- | --- | --- |
| < 5.00 | < 5.00 | 6.77 | < 5.00 | 9.07 |  | C/C(=N\OCc1ccc(-c2ccccc2)cc1)c1ccc(CCC(N)(CO)COP(=O)(O)O)cc1 (stereo not drawn) | ~0.1 | clean |  |
| 8.24 | < 5.00 | 5.91 | 8.46 | 7.80 |  | C/C(=N\OCc1ccc(-c2cccc(C(F)(F)F)c2)cc1)c1ccc(CCC(N)(CO)COP(=O)(O)O)cc1 (stereo not drawn) | < 1 | clean |  |
| < 5.00 | < 5.00 | 5.36 | < 5.00 | 9.10 |  | C/C(=N\OCc1ccc(-c2ccsc2)cc1)c1ccc(CCC(N)(CO)COP(=O)(O)O)cc1 (stereo not drawn) [Compound 9] | 0.08 | clean | ED50 ~0.08 mg/kg |
| < 5.00 | < 5.00 | < 5.00 | < 5.00 | 8.94 | at least 1000 fold | C/C(=N\OCc1ccc(-c2cccs2)cc1)c1ccc(CCC(N)(CO)COP(=O)(O)O)cc1 (stereo not drawn) [Compound 10, phosphoric acid mono-(2-amino-2-hydroxymethyl-4-{4-[1-(4-thiophen-2-yl-benzyloxy-imino)-ethyl]-phenyl}-butyl)ester] | ~0.2 | clean |  |
